# Results taken from PubChem BioAssay (NCI).
#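 GI50 is the concentration that inhibits growth by half. TGI: concentration producing complete growth inhibition.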
# Assays:
# Experiment in all cases: inhibition of tumour cell growth, NCI panel, 384-well format
# [1] = tested on: NCI-H23 lung
# [2] = tested on: MOLT-4 leukemia
# [3] = tested on: SF-268 CNS
# [4] = tested on: BT-549 breast
# [5] = tested on: M14 melanoma
# [6] = tested on: CCRF-CEM leukemia
# [7] = tested on: UO-31 renal
# [8] = tested on: NCI-H226 lung
# [9] = tested on: TK-10 renal
# [10] = tested on: A498 renal
# [11] = tested on: IGROV1 ovarian
# [12] = tested on: EKVX NSCLC
# [13] = tested on: SF-539 CNS
# [14] = tested on: UACC-62 melanoma
# [15] = tested on: SK-MEL-5 melanoma
# [16] = tested on: MDA-MB-435 melanoma
# [17] = tested on: NCI-H322M lung
# [18] = tested on: HS 578T breast
# [19] = tested on: SNB-75 CNS
# [20] = tested on: SK-MEL-28 melanoma
# [21] = tested on: OVCAR-4 ovarian
# [22] = tested on: 786-0 renal
# [23] = tested on: MALME-3M melanoma
# [24] = tested on: NCI-H522 lung
# [25] = tested on: HT29 colon
# [26] = tested on: SK-OV-3 ovarian
# [27] = tested on: DU-145 prostate
# [28] = tested on: RPMI-8226 leukemia
# [29] = tested on: CAKI-1 renal
# [30] = tested on: K-562 leukemia
# [31] = tested on: LOX IMVI melanoma
# [32] = tested on: OVCAR-5 ovarian
# [33] = tested on: SF-295 CNS
# [34] = tested on: HOP-92 NSCLC
# [35] = tested on: OVCAR-3 ovarian
# [36] = tested on: HL-60(TB) leukemia
# [37] = tested on: NCI-H460 NSCLC
# [38] = tested on: HCT-15 colon
# [39] = tested on: KM12 colon
# [40] = tested on: T-47D breast
# [41] = tested on: UACC-257 melanoma
# [42] = tested on: MDA-MB-468 breast
# [43] = tested on: OVCAR-8 ovarian
# [44] = tested on: MCF7 breast
# [45] = tested on: PC-3 prostate
# [46] = tested on: RXF 393 renal
# [47] = tested on: HCT-116 colon
# [48] = tested on: U251 glioblastoma
# [49] = tested on: NCI/ADR-RES ovarian
# [50] = tested on: MDA-MB-231 breast
# [51] = tested on: HCC-2998 colon
# [52] = tested on: HOP-62 NSCLC
# [53] = tested on: SNB-19 CNS
# [54] = tested on: SW-620 colon
# [55] = tested on: A549 NSCLC
# [56] = tested on: COLO 205 colon
# [57] = tested on: ACHN renal
# [58] = tested on: SN12C renal
# [59] = tested on: SK-MEL-2 melanoma
# [60] = tested on: SR leukemia
compound,measurement,setting,value
Cc1cnc(CNC(=O)c2c(=O)c3ccc(N4CCCN(C)CC4)nc3n3c2sc2ccccc23)cn1,GI50,[1],714 nM
same,TGI,[1],> 100000 nM
same,TGI,[2],17.5 nM
same,GI50,[3],24.1 nM
same,TGI,[3],88 nM
same,GI50,[4],1380 nM
same,TGI,[4],> 100000 nM
same,GI50,[5],781 nM
same,TGI,[5],> 100000 nM
same,GI50,[6],24.2 nM
same,TGI,[6],111 nM
same,GI50,[7],1540 nM
same,TGI,[7],> 100000 nM
same,GI50,[8],741 nM
same,TGI,[8],> 100000 nM
same,GI50,[9],9170 nM
same,TGI,[9],> 100000 nM
same,GI50,[10],112 nM
same,TGI,[10],1550 nM
same,GI50,[11],323 nM
same,TGI,[11],> 100000 nM
same,GI50,[12],34000 nM
same,TGI,[12],> 100000 nM
same,GI50,[13],259 nM
same,TGI,[13],> 100000 nM
same,GI50,[14],175 nM
same,TGI,[14],> 100000 nM
same,GI50,[15],172 nM
same,TGI,[15],48000 nM
same,GI50,[16],2900 nM
same,TGI,[16],> 100000 nM
same,GI50,[17],877 nM
same,TGI,[17],> 100000 nM
same,GI50,[18],69.7 nM
same,TGI,[18],> 100000 nM
same,GI50,[19],832 nM
same,TGI,[19],> 100000 nM
same,GI50,[20],27000 nM
same,TGI,[20],> 100000 nM
same,GI50,[21],383 nM
same,TGI,[21],5560 nM
same,GI50,[22],359 nM
same,TGI,[22],12800 nM
same,GI50,[23],806 nM
same,TGI,[23],> 100000 nM
same,GI50,[24],19900 nM
same,TGI,[24],> 100000 nM
same,GI50,[25],330 nM
same,TGI,[25],> 100000 nM
same,GI50,[26],1350 nM
same,TGI,[26],> 100000 nM
same,GI50,[27],490 nM
same,TGI,[27],33500 nM
same,GI50,[28],58.3 nM
same,TGI,[28],1620 nM
same,GI50,[29],607 nM
same,TGI,[29],> 100000 nM
same,GI50,[30],231 nM
same,TGI,[30],16300 nM
same,GI50,[31],138 nM
same,TGI,[31],1410 nM
same,GI50,[32],27700 nM
same,TGI,[32],> 100000 nM
same,GI50,[33],608 nM
same,TGI,[33],> 100000 nM
same,GI50,[34],353 nM
same,TGI,[34],> 100000 nM
same,GI50,[35],462 nM
same,TGI,[35],48500 nM
same,GI50,[36],58.6 nM
same,TGI,[36],2260 nM
same,GI50,[37],22.8 nM
same,TGI,[37],1120 nM
same,GI50,[38],87.7 nM
same,TGI,[38],2760 nM
same,GI50,[39],1030 nM
same,TGI,[39],2450 nM
same,GI50,[40],21500 nM
same,TGI,[40],> 100000 nM
same,GI50,[41],7630 nM
same,TGI,[41],> 100000 nM
same,GI50,[42],12400 nM
same,TGI,[42],> 100000 nM
same,GI50,[43],234 nM
same,TGI,[43],> 100000 nM
same,GI50,[44],416 nM
same,TGI,[44],1750 nM
same,GI50,[45],1600 nM
same,TGI,[45],22300 nM
same,GI50,[46],80.6 nM
same,TGI,[46],> 100000 nM
same,GI50,[47],112 nM
same,TGI,[47],1450 nM
same,GI50,[48],517 nM
same,TGI,[48],> 100000 nM
same,GI50,[49],> 100000 nM
same,TGI,[49],> 100000 nM
same,GI50,[50],397 nM
same,TGI,[50],> 100000 nM
same,GI50,[51],1660 nM
same,TGI,[51],19200 nM
same,GI50,[52],122 nM
same,TGI,[52],> 100000 nM
same,GI50,[53],322 nM
same,TGI,[53],> 100000 nM
same,GI50,[54],99.1 nM
same,TGI,[54],> 100000 nM
same,GI50,[55],36.9 nM
same,TGI,[55],1340 nM
same,GI50,[56],244 nM
same,TGI,[56],> 100000 nM
same,GI50,[57],64.3 nM
same,TGI,[57],> 100000 nM
same,GI50,[58],307 nM
same,TGI,[58],> 100000 nM
NC(=O)Nc1cc(-c2cccc(F)c2)sc1C(=O)N[C@H]1CCCNC1,GI50,[1],66.5 nM
same,TGI,[1],267 nM
same,GI50,[2],40.6 nM
same,TGI,[2],189 nM
same,GI50,[3],132 nM
same,TGI,[3],910 nM
same,GI50,[4],16.6 nM
same,TGI,[4],105 nM
same,GI50,[5],45.1 nM
same,TGI,[5],224 nM
same,GI50,[6],40.4 nM
same,TGI,[6],192 nM
same,GI50,[7],362 nM
same,TGI,[7],1510 nM
same,GI50,[8],508 nM
same,TGI,[8],2300 nM
same,GI50,[9],109 nM
same,TGI,[9],357 nM
same,GI50,[10],32.3 nM
same,TGI,[10],144 nM
same,GI50,[11],79.6 nM
same,TGI,[11],887 nM
same,GI50,[12],389 nM
same,TGI,[12],2150 nM
same,GI50,[13],22.8 nM
same,TGI,[13],104 nM
same,GI50,[14],319 nM
same,TGI,[14],3330 nM
same,GI50,[15],127 nM
same,TGI,[15],408 nM
same,GI50,[16],143 nM
same,TGI,[16],302 nM
same,GI50,[17],161 nM
same,TGI,[17],967 nM
same,GI50,[18],13.2 nM
same,TGI,[18],284 nM
same,GI50,[19],188 nM
same,TGI,[19],1260 nM
same,GI50,[20],1500 nM
same,TGI,[20],8600 nM
same,GI50,[21],69.6 nM
same,TGI,[21],348 nM
same,GI50,[22],179 nM
same,TGI,[22],1050 nM
same,GI50,[23],185 nM
same,TGI,[23],1740 nM
same,GI50,[24],128 nM
same,TGI,[24],589 nM
same,GI50,[25],221 nM
same,TGI,[25],700 nM
same,GI50,[26],136 nM
same,TGI,[26],380 nM
same,GI50,[27],290 nM
same,TGI,[27],1340 nM
same,GI50,[28],34.9 nM
same,TGI,[28],186 nM
same,GI50,[29],294 nM
same,TGI,[29],1500 nM
same,GI50,[30],103 nM
same,TGI,[30],237 nM
same,GI50,[31],359 nM
same,TGI,[31],1240 nM
same,GI50,[32],289 nM
same,TGI,[32],1620 nM
same,GI50,[33],142 nM
same,TGI,[33],461 nM
same,GI50,[34],38.1 nM
same,TGI,[34],407 nM
same,GI50,[35],103 nM
same,TGI,[35],539 nM
same,GI50,[59],108 nM
same,TGI,[59],284 nM
same,GI50,[36],120 nM
same,TGI,[36],245 nM
same,GI50,[37],284 nM
same,TGI,[37],2060 nM
same,GI50,[60],36.5 nM
same,TGI,[60],154 nM
same,GI50,[38],1280 nM
same,TGI,[38],2890 nM
same,GI50,[39],22 nM
same,TGI,[39],228 nM
same,GI50,[40],12700 nM
same,TGI,[40],25400 nM
same,GI50,[41],1970 nM
same,TGI,[41],11100 nM
same,GI50,[42],202 nM
same,TGI,[42],698 nM
same,GI50,[44],53.3 nM
same,TGI,[44],12200 nM
same,GI50,[45],259 nM
same,TGI,[45],3960 nM
same,GI50,[46],12.1 nM
same,TGI,[46],43.2 nM
same,GI50,[47],1000 nM
same,TGI,[47],2670 nM
same,GI50,[48],385 nM
same,TGI,[48],2880 nM
same,GI50,[49],9190 nM
same,TGI,[49],23000 nM
same,GI50,[50],300 nM
same,TGI,[50],1570 nM
same,GI50,[51],10.6 nM
same,TGI,[51],149 nM
same,GI50,[52],146 nM
same,TGI,[52],565 nM
same,GI50,[53],377 nM
same,TGI,[53],2290 nM
same,GI50,[54],595 nM
same,TGI,[54],2120 nM
same,GI50,[55],315 nM
same,TGI,[55],1570 nM
same,GI50,[56],261 nM
same,TGI,[56],1080 nM
same,GI50,[57],49.7 nM
same,TGI,[57],295 nM
same,GI50,[58],130 nM
same,TGI,[58],968 nM
